Test results taken from patent US7276522B2, “4-(substituted cycloalkylmethyl) imidazole-2-thiones, 4-(substituted cycloalkenylmethyl) imidazole-2-thiones, 4-(substituted cycloalkylmethyl) imidazol-2-ones, 4-(substituted cycloalkenylmethyl) imidazol-2-ones and related compounds” (Allergan, Inc., priority 2002, dated 2007).

Experiments:
[1] = target: T1, alpha2C adrenergic receptor (Homo sapiens, UniProt P18825); assay: Receptor Selection and Amplification Technology (RSAT) assay, alpha2C; type: cell-based; conditions: NIH-3T3 cells, agonism, read-out: EC50, Alpha 2C
T1 construct: expressed in transfected cells; host or cells: NIH-3T3
T1 sequence (P18825 1-462): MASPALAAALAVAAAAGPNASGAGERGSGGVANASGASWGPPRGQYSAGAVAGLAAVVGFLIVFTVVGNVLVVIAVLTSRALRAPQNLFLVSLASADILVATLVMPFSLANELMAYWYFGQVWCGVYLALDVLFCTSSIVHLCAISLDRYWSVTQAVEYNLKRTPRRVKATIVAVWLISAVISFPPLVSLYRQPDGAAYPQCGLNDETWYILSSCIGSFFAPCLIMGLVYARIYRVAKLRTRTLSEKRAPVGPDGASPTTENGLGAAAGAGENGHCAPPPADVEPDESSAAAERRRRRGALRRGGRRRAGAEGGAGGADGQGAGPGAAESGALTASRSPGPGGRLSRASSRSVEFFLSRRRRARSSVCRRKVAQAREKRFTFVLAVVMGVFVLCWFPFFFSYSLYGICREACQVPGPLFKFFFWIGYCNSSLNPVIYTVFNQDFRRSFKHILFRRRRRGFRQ
Excerpt: (§1) The imidazole-2-thione compounds of the invention are agonists of alpha2 adrenergic receptors, particularly they tend to be specific or selective agonists of alpha2B and/or to a lesser extent alpha2C adrenergic receptors, in preference over alpha2A adrenergic receptors. […] Al., 1995, Pharmacol. Toxicol. 76, pp. 308-311 (incorporated herein by reference) and is also described below. Another reference pertinent to this assay is Conklin et al. (1993) Nature 363:274-6, also incorporated herein by reference.
(§2) Receptor Selection and Amplification Technology (RSAT) Assay
(§3) The RSAT assay measures a receptor-mediated loss of contact inhibition that results in selective proliferation of receptor-containing cells in a mixed population of confluent cells. The increase in cell number is assessed with an appropriate transfected marker gene such as β-galactosidase, the activity of which can be easily measured in a 96-well format. […]
(§4) NIH-3T3 cells are plated at a density of 2×10^6 cells in 15 cm dishes and maintained in Dulbecco's modified Eagle's medium supplemented with 10% calf serum. […] After washing with phosphate-buffered saline, β-galactosidase enzyme activity is determined by adding 200 μl of the chromogenic substrate (consisting of 3.5 mM o-nitrophenyl-β-D-galactopyranoside and 0.5% nonidet P-40 in phosphate buffered saline), incubating overnight at 30° C. and measuring optical density at 420 nm. […]

[2] = target: T2, alpha2B adrenergic receptor (Homo sapiens, UniProt P18089); assay: Receptor Selection and Amplification Technology (RSAT) assay, alpha2B; type: cell-based; conditions: for EC50: RSAT, NIH-3T3 cells, agonism, read-out: EC50, Alpha 2B; for Emax: fraction of maximal effect of standard agonist brimonidine, read-out: intrinsic activity, Alpha 2B
T2 construct: expressed in transfected cells; host or cells: NIH-3T3
T2 sequence (P18089 1-450): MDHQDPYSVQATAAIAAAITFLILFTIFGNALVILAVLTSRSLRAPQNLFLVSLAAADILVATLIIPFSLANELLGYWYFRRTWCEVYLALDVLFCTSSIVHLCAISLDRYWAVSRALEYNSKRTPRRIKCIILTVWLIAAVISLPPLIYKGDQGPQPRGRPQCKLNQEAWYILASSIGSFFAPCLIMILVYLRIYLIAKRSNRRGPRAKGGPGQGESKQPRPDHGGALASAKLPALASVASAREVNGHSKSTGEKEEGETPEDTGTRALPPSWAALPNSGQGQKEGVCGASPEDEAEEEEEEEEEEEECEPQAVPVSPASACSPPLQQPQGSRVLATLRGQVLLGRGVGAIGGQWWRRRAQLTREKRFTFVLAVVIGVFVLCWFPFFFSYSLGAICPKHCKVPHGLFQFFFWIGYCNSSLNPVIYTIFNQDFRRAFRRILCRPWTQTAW
Excerpt: as §1, §2
The RSAT assay measures a receptor-mediated loss of contact inhibition that results in selective proliferation of receptor-containing cells in a mixed population of confluent cells. The increase in cell number is assessed with an appropriate transfected marker gene such as β-galactosidase, the activity of which can be easily measured in a 96-well format. Receptors that activate the G protein, Gq, elicit this response. Alpha2 receptors, which normally couple to Gi, activate the RSAT response when coexpressed with a hybrid Gq protein that has a Gi receptor recognition domain, called Gq/i5.
NIH-3T3 cells are plated at a density of 2×10^6 cells in 15 cm dishes and maintained in Dulbecco's modified Eagle's medium supplemented with 10% calf serum. One day later, cells are cotransfected by calcium phosphate precipitation with mammalian expression plasmids encoding p-SV-β-galactosidase (5-10 μg), receptor (1-2 μg) and G protein (1-2 μg). 40 μg salmon sperm DNA may also be included in the transfection mixture. Fresh media is added on the following day and 1-2 days later, cells are harvested and frozen in 50 assay aliquots. Cells are thawed and 100 μl added to 100 μl aliquots of various concentrations of drugs in triplicate in 96-well dishes. Incubations continue 72-96 hr at 37° C. After washing with phosphate-buffered saline, β-galactosidase enzyme activity is determined by adding 200 μl of the chromogenic substrate (consisting of 3.5 mM o-nitrophenyl-β-D-galactopyranoside and 0.5% nonidet P-40 in phosphate buffered saline), incubating overnight at 30° C. and measuring optical density at 420 nm. The absorbance is a measure of enzyme activity, which depends on cell number and reflects a receptor-mediated cell proliferation. The EC50 and maximal effect of each drug at each alpha2 receptor is determined. The efficacy or intrinsic activity is calculated as a ratio of the maximal effect of the drug to the maximal effect of a standard full agonist for each receptor subtype. Brimonidine, also called UK14304, the chemical structure of which is shown below, is used as the standard agonist for the alpha2A, alpha2B and alpha2C receptors. […]

[3] = target: T3, alpha2A adrenergic receptor (Homo sapiens, UniProt P08913); assay: Receptor Selection and Amplification Technology (RSAT) assay, alpha2A; type: cell-based; conditions: NIH-3T3 cells, agonism, read-out: EC50, Alpha 2A
T3 sequence (P08913 1-465): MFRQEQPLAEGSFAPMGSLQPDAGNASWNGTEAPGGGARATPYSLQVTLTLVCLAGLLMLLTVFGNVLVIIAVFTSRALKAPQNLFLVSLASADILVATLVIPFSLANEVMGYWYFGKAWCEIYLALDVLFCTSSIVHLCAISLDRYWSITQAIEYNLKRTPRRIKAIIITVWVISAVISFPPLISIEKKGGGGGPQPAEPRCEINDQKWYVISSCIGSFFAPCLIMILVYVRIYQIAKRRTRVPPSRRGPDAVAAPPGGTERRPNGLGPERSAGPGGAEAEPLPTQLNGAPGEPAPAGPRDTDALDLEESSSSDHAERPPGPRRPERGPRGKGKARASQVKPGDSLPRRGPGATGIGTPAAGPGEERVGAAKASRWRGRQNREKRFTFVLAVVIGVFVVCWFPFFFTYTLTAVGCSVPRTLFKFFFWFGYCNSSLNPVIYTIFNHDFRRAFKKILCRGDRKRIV
Excerpt: as §1, §2, §3, §4

[4] = system: rats with surgical ligation of L5 and L6 spinal nerves (tactile allodynia); assay: Chung model of neuropathic pain (tactile allodynia, von Frey hairs); type: in vivo, rat; conditions: 30 min after dosing
Excerpt: Alleviation of Chronic Pain
A model in accordance with Kim and Chung 1992, Pain […], pp 355-363 (Chung model), for chronic pain (in particular peripheral neuropathy) involves the surgical ligation of the L5 (and optionally the L6) spinal nerves on one side in experimental animals. Rats recovering from the surgery gain weight and display a level of general activity similar to that of normal rats. However, these rats develop abnormalities of the foot, wherein the hindpaw is moderately everted and the toes are held together. More importantly, the hindpaw on the side affected by the surgery appears to become sensitive to pain from low-threshold mechanical stimuli, such as that producing a faint sensation of touch in a human, within about 1 week following surgery. This sensitivity to normally non-painful touch is called “tactile allodynia” and lasts for at least two months. The response includes lifting the affected hindpaw to escape from the stimulus, licking the paw and holding it in the air for many seconds. None of these responses is normally seen in the control group.
Rats are anesthetized before surgery. The surgical site is shaved and prepared either with betadine or Novacaine. Incision is made from the thoracic vertebra X111 down toward the sacrum. Muscle tissue is separated from the spinal vertebra (left side) at the L4-S2 levels. The L6 vertebra is located and the transverse process is carefully removed with a small rongeur to expose the L4-L6 spinal nerves. The L5 and L6 spinal nerves are isolated and tightly ligated with 6-0 silk thread. The same procedure is done on the right side as a control, except no ligation of the spinal nerves is performed.
A complete hemostasis is confirmed, then the wounds are sutured. A small amount of antibiotic ointment is applied to the incised area, and the rat is transferred to the recovery plastic cage under a regulated heat-temperature lamp. On the day of the experiment, at least seven days after the surgery, typically six rats per test group are administered the test drugs by intraperitoneal (i.p.) injection or oral gavage. For i.p. injection, the compounds are formulated in approximately 10 to 50% DMSO and given in a volume of 1 ml/kg body weight.
Tactile allodynia is measured prior to and 30 minutes after drug administration using von Frey hairs that are a series of fine hairs with incremental differences in stiffness. Rats are placed in a plastic cage with a wire mesh bottom and allowed to acclimate for approximately 30 minutes. The von Frey hairs are applied perpendicularly through the mesh to the mid-plantar region of the rats' hindpaw with sufficient force to cause slight buckling and held for 6-8 seconds. The applied force has been calculated to range from 0.41 to 15.1 grams. If the paw is sharply withdrawn, it is considered a positive response. A normal animal will not respond to stimuli in this range, but a surgically ligated paw will be withdrawn in response to a 1-2 gram hair. The 50% paw withdrawal threshold is determined using the method of Dixon, W. J., Ann. Rev. Pharmacol. Toxicol. 20:441-462 (1980). The post-drug threshold is compared to the pre-drug threshold and the percent reversal of tactile sensitivity is calculated based on a normal threshold of 15.1 grams. The results are expressed in percent (%) MPE, where the MPE value reflects the percentage reversal of pain threshold to that of a normal animal (100%). Table 3 below indicates results of this test with Compounds 1, 7 and 29 of the invention, administered i.p. and in oral doses.

Row | EC50 [1] [µM] | EC50 [2] [nM] | Emax [2] [%] | EC50 [3] [µM] | SMILES | % Pain Reversal ± SEM ([4]; 10 μg/kg i.p.) [%] | % Pain Reversal ± SEM ([4]; 30 μg/kg i.p.) [%] | % Pain Reversal ± SEM ([4]; 100 μg/kg i.p.) [%] | % Pain Reversal ± SEM ([4]; 100 μg/kg p.o.) [%] | % Pain Reversal ± SEM ([4]; 300 μg/kg i.p.) [%] | % Pain Reversal ± SEM ([4]; 30 μg/kg p.o.) [%] | % Pain Reversal ± SEM ([4]; 300 μg/kg p.o.) [%]
1 | > 10 | 113 | 104 | > 10 | Cc1ccc2c(n1)CC(Cc1c[nH]c(=S)[nH]1)CC2 (racemic) [Compound 201, 4-(2-methyl-5,6,7,8-tetrahydro-quinolin-7-ylmethyl)-1,3-dihydro-imidazole-2-thione] | 0.65 ± 0.91 | 42 ± 5.7 | 75.1 ± 5.7 | 64 ± 7 | 82.5 ± 7.4 |  | 
2 | > 10 | 92 | 99 | > 10 | Cc1ccc2c(n1)CC(Cc1c[nH]c(=S)[nH]1)CC2 (single isomer, unassigned) [Compound 202, 4-(2-methyl-5,6,7,8-tetrahydro-quinolin-7-ylmethyl)-1,3-dihydro-imidazole-2-thione] |  |  |  | 49 ± 7.2 |  | 28 ± 8.5 | 75 ± 8.1
